ChEMBL document CHEMBL1134939, “A survey of cyclic replacements for the central diamide moiety of inhibitors of inosine monophosphate dehydrogenase” (Bioorg Med Chem Lett, 2002)
pIC50: −log10 of the molar value.

Columns and labels:
[1] = biological target: T1, Inosine-5'-monophosphate dehydrogenase 2 (Homo sapiens, UniProt P12268); test: Inhibitory concentration required against Inosine Monophosphate Dehydrogenase II (IMPDH II) was determined in vitro at a concentration 500 uM
[2] = biological target: T1, Inosine-5'-monophosphate dehydrogenase 2; test: Inhibition of Inosine Monophosphate Dehydrogenase II (IMPDH II)
[3] = biological target: T1, Inosine-5'-monophosphate dehydrogenase 2; test: Inhibitory concentration required against Inosine Monophosphate Dehydrogenase II (IMPDH II) was determined in vitro at a concentration 100 uM

COc1cc(Nc2cccc(-c3ccccc3)c2)ccc1-c1cnco1
inhibition [1]: 30%

COc1cc(Nc2cc(-c3ccccc3)on2)ccc1-c1cnco1
pIC50 [2]: 6.92

COc1cc(Nc2cnc(-c3ccccc3)s2)ccc1-c1cnco1
pIC50 [2]: 6.12

COc1cc(NC2=NCC(c3ccccc3)O2)ccc1-c1cnco1 (stereo unspecified)
pIC50 [2]: 6.96

COc1cc(-c2ccccc2)nc(Nc2ccc(-c3cnco3)c(OC)c2)n1
pIC50 [2]: 6.96

COc1cc(Nc2nnc(-c3ccccc3)s2)ccc1-c1cnco1
pIC50 [2]: 6.48

COc1cc(Nc2nc(-c3ccccc3)cs2)ccc1-c1cnco1
pIC50 [2]: 6.52

COc1cc(Nc2nc(-c3ccccc3)c[nH]2)ccc1-c1cnco1
inhibition [3]: 7%

COc1cc(Nc2nnc(-c3ccccc3)o2)ccc1-c1cnco1
pIC50 [2]: 7.36

COc1cc(Nc2nnc(-c3ccccc3)[nH]2)ccc1-c1cnco1
pIC50 [2]: 6.72

COc1cc(Nc2noc(-c3ccccc3)n2)ccc1-c1cnco1
pIC50 [2]: 7.23
